{"source": "patent US20200031866A1", "about": "“PEPTIDE INHIBITORS OF SODIUM CHANNELS” (SPYRYX BIOSCIENCES, INC., priority 2016, published 2020)", "molecular_target": "T1, alpha-ENaC (Homo sapiens, UniProt P37088+P51168+P51170)", "T1 construct": "expressed in transfected cells; host or cells: HEK293T", "T1 sequence (P37088 1-669)": "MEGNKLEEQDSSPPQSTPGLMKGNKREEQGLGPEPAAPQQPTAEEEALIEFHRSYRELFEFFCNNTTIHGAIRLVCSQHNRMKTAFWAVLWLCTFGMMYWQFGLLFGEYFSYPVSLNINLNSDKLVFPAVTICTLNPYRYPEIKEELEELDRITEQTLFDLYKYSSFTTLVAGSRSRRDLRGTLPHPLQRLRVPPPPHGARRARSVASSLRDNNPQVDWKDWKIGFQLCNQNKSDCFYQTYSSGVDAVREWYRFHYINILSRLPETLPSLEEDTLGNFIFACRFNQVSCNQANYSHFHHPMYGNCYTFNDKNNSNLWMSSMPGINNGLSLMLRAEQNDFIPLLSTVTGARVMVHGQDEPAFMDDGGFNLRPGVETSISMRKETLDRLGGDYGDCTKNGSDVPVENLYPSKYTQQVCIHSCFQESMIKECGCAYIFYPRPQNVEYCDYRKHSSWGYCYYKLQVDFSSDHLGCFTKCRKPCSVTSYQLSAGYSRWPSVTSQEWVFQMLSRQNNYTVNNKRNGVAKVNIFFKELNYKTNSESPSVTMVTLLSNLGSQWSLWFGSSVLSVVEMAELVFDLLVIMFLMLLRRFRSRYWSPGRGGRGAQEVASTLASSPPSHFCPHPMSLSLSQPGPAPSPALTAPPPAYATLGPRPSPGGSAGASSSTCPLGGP", "T1 sequence (P51168 1-640)": "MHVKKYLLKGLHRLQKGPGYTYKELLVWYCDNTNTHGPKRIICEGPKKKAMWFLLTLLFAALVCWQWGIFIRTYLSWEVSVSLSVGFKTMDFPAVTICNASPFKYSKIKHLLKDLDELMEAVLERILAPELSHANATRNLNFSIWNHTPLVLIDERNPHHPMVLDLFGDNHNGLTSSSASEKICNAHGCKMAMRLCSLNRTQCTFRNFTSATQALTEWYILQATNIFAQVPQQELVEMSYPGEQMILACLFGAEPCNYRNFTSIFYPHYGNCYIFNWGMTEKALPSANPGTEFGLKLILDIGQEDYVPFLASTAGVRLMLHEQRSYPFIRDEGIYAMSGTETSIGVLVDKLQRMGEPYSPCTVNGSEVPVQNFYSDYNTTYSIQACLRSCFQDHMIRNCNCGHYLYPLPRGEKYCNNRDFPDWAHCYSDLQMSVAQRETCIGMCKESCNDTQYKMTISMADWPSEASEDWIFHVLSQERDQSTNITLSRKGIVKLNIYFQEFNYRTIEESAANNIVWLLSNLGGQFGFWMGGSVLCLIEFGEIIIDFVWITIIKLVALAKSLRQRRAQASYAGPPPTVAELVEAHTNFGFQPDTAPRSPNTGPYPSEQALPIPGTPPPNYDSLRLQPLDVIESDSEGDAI", "T1 sequence (P51170 1-649)": "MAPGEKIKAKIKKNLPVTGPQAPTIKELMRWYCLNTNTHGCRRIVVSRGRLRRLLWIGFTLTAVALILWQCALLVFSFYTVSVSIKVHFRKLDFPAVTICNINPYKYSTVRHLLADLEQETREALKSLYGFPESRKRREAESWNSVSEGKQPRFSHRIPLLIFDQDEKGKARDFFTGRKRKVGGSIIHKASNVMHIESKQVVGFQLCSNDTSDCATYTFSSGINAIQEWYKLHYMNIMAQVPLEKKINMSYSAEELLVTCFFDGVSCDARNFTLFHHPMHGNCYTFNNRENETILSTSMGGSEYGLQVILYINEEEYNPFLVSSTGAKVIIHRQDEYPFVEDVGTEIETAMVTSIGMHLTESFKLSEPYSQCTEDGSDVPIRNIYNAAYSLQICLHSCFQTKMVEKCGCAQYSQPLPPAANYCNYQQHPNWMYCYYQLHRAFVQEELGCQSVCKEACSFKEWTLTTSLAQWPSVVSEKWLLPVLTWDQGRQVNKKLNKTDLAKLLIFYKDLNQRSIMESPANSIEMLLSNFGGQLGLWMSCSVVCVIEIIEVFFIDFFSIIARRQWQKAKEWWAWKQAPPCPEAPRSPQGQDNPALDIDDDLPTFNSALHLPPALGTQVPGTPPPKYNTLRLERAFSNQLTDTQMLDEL", "assay": "Internalization of alpha-ENaC in HEK293T cells, GFP-tagged alpha-ENaC co-expressed with beta and gamma ENaC", "assay_type": "cell-based", "conditions": "beta-ENaC co-expressed, FIGS. 5A-5U", "source_text": "HEK293T cells were transfected with gfp-αENaC where gfp was fused at the N-terminus of ENaC and unlabeled βENaC and γENaC using lipofectamine in 384 well plates as per the manufacturer's instructions and as published previously (see, e.g., Hobbs et al. Am J Physiol Lung Cell Mol Physiol. 2013 December; 305(12):L990-L1001. doi: 10.1152/ajplung.00103.2013. Epub 2013 October; Garland et al. Proc Natl Acad Sci USA. 2013 Oct. 1; 110(40):15973-8. doi: 10.1073/pnas.1311999110. Epub 2013 Sep. 16.; Tan et al. J Physiol. 2014 Dec. 1; 592(Pt 23):5251-68). Twenty-four hours later, peptide or vehicle control were added at t=0 and fluorescence was read using a Tecan M1000 plate reader 3 h later. Fluorescence was read at 488 nm (excitation)/510 nm (emission).", "note": "Square brackets hold non-standard residues; d marks the D form. Peptide text beside a SMILES is read from it.", "data": [{"smiles": "CC[C@H](C)[C@H](NC(=O)[C@@H]1CCCN1C(=O)[C@H](CC(C)C)NC(=O)[C@@H](C)NC(=O)[C@@H](C)N)C(=O)N1CCC[C@H]1C(=O)N[C@@H](CC(C)C)C(=O)N[C@@H](CC(=O)O)C(=O)N[C@@H](CCC(N)=O)C(=O)N[C@H](C(=O)N[C@H](C)C(=O)N[C@H](C)C(N)=O)[C@@H](C)O", "note": "[SEQ ID NO:128, aaLPIPLDQTaa] (H-[dA][dA]LPIPLDQT[dA][dA]-NH2)", "values": [{"measurement": "reduction of alpha-ENaC / functional receptor on the cell surface", "result": "effective in reducing alpha-ENaC"}]}]}
